Test results: US20250101023A1, “HETEROARYL DERIVATIVE AND USES THEREOF” (IUCF-HYU (INDUSTRY-UNIVERSITY COOPERATION FOUNDATION …, priority 2022, published 2025)

Key:
[1] = molecular target: CYP2C19 (Homo sapiens (Human), UniProt P33261); assay: CYP inhibitory activity; assay type: in vitro ADME; settings: read-out: CYP % activity at 10 μM concentration 2C19
Method: (§1) 5 derivatives were evaluated for in vitro metabolic stability in liver microsomes from three different species (human, dog, mouse) and for inhibitory activity against 5 representative cytochrome P450 enzymes (CYPs)(Table 3). In terms of liver microsomal stability, the 2′-pyridyl group is more suitable than the α-methyl-4′-pyridyl group as the terminal aromatic group at position 6, and the aminopyrimidyl group is better than the aminopyridyl group as a substituent at position 2.

[2] = molecular target: CYP2C9 (Homo sapiens (Human), UniProt P11712); assay: CYP inhibitory activity; assay type: in vitro ADME; settings: read-out: CYP % activity at 10 μM concentration 2C9
Method: as §1

[3] = molecular target: CYP2D6 (Homo sapiens (Human), UniProt P10635); assay: CYP inhibitory activity; assay type: in vitro ADME; settings: read-out: CYP % activity at 10 μM concentration 2D6
Method: as §1

[4] = molecular target: CYP3A4 (Homo sapiens (Human), UniProt P08684); assay: CYP inhibitory activity; assay type: in vitro ADME; settings: read-out: CYP % activity at 10 μM concentration 3A4
Method: as §1

[5] = test system: SK-Br3 xenograft; assay: SK-Br3 xenograft model, anticancer efficacy; assay type: in vivo, mouse; settings: 10 mg/kg and 20 mg/kg, i.p. twice a week
Method: A mouse efficacy experiment was conducted after obtaining approval from the Laboratory Animal Ethics Committee of GenNBio (Review No.: GN-IACUC-Research 22-02-07). SK-Br3 and HCC-1954 cells (1×10^6 cells each) mixed with Matrigel (BD Biosciences) were […] injected into 5-week-old female Balb/c nude mice (Orient Bio, Seongnam, Republic of Korea). After tumors reached a size of about 100 mm^3, the compound, trastuzumab (20 mg/kg), and the like were intraperitoneally injected into mice (n=8 per group)(vehicle: 8% DMSO, 4% Tween-80, 88% PBS). The tumor size was measured twice weekly for about 4 weeks and calculated as follows. Volume (mm^3)=(a×b^2)/2; “a”, maximum diameter; “b”, vertical diameter

[6] = molecular target: CAMKK2 (Homo sapiens (Human), UniProt Q96RR4); assay: Kinome-wide profiling; assay type: biochemical; settings: read-out: % Residual Activity (mean)
CAMKK2, sequence (Q96RR4 whole entry): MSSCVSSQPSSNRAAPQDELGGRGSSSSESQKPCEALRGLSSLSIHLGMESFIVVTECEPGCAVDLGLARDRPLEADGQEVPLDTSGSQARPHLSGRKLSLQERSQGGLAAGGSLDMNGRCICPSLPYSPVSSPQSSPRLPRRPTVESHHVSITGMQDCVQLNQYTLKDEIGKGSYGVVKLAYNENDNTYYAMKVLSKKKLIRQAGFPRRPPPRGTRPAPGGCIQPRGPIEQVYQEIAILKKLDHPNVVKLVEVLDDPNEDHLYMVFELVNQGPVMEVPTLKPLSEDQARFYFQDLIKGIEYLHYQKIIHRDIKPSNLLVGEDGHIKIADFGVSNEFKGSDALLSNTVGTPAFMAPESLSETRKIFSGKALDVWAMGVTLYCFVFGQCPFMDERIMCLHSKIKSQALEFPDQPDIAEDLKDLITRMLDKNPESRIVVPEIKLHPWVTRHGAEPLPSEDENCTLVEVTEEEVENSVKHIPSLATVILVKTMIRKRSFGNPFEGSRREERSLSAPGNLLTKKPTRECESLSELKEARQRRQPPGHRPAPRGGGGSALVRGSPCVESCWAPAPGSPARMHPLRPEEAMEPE

[7] = molecular target: CLK2 (Homo sapiens (Human), UniProt P49760); assay: Kinome-wide profiling; assay type: biochemical; settings: read-out: % Residual Activity (mean)
CLK2, sequence (P49760 whole entry): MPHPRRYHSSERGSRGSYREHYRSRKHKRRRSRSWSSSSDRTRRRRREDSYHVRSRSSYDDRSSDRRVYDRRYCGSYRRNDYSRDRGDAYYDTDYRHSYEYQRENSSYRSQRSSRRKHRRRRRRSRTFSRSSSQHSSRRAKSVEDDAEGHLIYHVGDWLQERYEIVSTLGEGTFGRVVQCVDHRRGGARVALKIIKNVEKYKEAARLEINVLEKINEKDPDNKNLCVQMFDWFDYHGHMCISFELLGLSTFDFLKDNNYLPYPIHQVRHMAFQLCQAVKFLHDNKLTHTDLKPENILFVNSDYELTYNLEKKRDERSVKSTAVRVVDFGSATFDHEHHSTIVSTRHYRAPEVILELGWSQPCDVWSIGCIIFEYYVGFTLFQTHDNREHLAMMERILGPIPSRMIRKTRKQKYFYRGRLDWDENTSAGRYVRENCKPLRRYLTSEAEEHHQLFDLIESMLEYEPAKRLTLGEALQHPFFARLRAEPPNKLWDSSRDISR

[8] = molecular target: ARK5/NUAK1 (Homo sapiens (Human), UniProt O60285); assay: Kinome-wide profiling; assay type: biochemical; settings: read-out: % Residual Activity (mean)
[9] = molecular target: STK38/NDR1 (Homo sapiens (Human), UniProt Q15208); assay: Kinome-wide profiling; assay type: biochemical; settings: read-out: % Residual Activity (mean)
[10] = molecular target: FGFR1 (Homo sapiens (Human), UniProt P11362); assay: Kinome-wide profiling; assay type: biochemical; settings: read-out: % Residual Activity (mean)
[11] = molecular target: PDGFRb (Homo sapiens (Human), UniProt P09619); assay: Kinome-wide profiling; assay type: biochemical; settings: read-out: % Residual Activity (mean)
PDGFRb, sequence (P09619 33-1106): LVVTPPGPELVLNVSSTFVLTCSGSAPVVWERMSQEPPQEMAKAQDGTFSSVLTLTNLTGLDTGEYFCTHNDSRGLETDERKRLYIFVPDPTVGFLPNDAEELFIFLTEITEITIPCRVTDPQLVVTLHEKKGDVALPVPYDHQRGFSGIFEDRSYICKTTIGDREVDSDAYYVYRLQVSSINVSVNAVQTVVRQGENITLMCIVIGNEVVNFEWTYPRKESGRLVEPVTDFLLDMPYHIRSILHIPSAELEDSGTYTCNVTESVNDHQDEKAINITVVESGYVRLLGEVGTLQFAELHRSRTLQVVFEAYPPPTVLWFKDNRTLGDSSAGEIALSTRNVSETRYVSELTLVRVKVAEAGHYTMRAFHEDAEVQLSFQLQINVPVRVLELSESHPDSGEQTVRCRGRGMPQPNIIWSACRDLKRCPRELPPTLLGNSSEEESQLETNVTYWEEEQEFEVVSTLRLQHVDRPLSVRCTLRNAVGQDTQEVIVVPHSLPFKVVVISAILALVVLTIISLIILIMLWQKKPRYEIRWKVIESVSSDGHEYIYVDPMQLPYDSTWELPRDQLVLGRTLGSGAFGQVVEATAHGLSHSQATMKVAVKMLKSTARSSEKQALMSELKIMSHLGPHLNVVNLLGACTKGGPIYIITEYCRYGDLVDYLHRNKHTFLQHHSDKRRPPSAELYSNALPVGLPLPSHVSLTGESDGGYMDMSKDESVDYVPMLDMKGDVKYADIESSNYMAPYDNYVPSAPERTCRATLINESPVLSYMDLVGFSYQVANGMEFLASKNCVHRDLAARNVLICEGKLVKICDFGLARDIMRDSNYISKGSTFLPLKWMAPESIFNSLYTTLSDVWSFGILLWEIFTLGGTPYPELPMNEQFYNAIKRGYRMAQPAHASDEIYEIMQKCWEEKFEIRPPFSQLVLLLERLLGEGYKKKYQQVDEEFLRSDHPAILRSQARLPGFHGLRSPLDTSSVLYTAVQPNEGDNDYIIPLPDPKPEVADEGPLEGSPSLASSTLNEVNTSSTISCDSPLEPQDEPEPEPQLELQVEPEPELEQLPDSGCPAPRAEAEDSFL

[12] = molecular target: JNK1 (Homo sapiens (Human), UniProt P45983); assay: Kinome-wide profiling; assay type: biochemical; settings: read-out: % Residual Activity (mean)
[13] = molecular target: MST3/STK24 (Homo sapiens (Human), UniProt Q9Y6E0); assay: Kinome-wide profiling; assay type: biochemical; settings: read-out: % Residual Activity (mean)
MST3/STK24, sequence (Q9Y6E0 whole entry): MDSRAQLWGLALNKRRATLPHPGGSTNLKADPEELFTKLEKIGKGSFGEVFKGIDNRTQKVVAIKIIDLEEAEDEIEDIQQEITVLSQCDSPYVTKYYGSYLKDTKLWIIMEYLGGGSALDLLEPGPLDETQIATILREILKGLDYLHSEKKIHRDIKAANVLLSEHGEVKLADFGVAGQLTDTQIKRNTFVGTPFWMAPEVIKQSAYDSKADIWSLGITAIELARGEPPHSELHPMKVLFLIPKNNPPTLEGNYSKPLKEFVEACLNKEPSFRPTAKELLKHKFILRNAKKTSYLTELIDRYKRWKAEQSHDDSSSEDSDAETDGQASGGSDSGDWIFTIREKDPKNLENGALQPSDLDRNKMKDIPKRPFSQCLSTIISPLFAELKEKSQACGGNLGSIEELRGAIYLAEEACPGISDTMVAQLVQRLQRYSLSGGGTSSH

[14] = molecular target: GRK7 (Homo sapiens (Human), UniProt Q8WTQ7); assay: Kinome-wide profiling; assay type: biochemical; settings: read-out: % Residual Activity (mean)
[15] = molecular target: FER (Homo sapiens (Human), UniProt P16591); assay: Kinome-wide profiling; assay type: biochemical; settings: read-out: % Residual Activity (mean)
[16] = molecular target: FGR (Homo sapiens (Human), UniProt P09769); assay: Kinome-wide profiling; assay type: biochemical; settings: read-out: % Residual Activity (mean)
[17] = molecular target: PHKg2 (Homo sapiens (Human), UniProt P15735); assay: Kinome-wide profiling; assay type: biochemical; settings: read-out: % Residual Activity (mean)
[18] = molecular target: CAMK2d (Homo sapiens (Human), UniProt Q13557); assay: Kinome-wide profiling; assay type: biochemical; settings: read-out: % Residual Activity (mean)
[19] = molecular target: MLK2/MAP3K10 (Homo sapiens (Human), UniProt Q02779); assay: Kinome-wide profiling; assay type: biochemical; settings: read-out: % Residual Activity (mean)
MLK2/MAP3K10, sequence (Q02779 whole entry): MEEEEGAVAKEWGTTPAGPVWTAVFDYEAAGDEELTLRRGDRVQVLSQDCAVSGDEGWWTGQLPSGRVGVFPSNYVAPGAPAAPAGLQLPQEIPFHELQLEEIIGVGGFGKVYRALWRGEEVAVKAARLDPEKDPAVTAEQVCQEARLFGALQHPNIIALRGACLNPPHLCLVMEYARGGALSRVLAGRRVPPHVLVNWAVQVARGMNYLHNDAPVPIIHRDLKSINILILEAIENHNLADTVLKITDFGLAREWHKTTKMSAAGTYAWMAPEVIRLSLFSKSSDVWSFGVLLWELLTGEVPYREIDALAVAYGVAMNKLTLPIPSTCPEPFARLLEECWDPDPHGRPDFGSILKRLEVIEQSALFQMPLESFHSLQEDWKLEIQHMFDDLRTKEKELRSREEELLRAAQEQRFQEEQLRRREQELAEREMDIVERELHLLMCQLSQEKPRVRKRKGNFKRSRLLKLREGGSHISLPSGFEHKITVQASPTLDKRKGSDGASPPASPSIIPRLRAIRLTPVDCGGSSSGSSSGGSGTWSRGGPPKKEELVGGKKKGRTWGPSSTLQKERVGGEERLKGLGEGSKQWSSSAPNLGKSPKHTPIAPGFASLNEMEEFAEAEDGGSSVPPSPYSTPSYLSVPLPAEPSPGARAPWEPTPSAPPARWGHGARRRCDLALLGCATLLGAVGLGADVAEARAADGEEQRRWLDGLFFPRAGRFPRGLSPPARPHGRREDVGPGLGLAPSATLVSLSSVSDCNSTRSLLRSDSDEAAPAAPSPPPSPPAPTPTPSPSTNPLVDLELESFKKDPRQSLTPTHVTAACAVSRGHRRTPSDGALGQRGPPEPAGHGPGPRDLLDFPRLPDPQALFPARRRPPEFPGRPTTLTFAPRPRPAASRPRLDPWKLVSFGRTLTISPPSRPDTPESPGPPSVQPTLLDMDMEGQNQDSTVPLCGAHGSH

[20] = molecular target: PKCa (Homo sapiens (Human), UniProt P17252); assay: Kinome-wide profiling; assay type: biochemical; settings: read-out: % Residual Activity (mean)
[21] = molecular target: Aurora B (Homo sapiens (Human), UniProt Q96GD4); assay: Kinome-wide profiling; assay type: biochemical; settings: read-out: % Residual Activity (mean)
Aurora B, sequence (Q96GD4 whole entry): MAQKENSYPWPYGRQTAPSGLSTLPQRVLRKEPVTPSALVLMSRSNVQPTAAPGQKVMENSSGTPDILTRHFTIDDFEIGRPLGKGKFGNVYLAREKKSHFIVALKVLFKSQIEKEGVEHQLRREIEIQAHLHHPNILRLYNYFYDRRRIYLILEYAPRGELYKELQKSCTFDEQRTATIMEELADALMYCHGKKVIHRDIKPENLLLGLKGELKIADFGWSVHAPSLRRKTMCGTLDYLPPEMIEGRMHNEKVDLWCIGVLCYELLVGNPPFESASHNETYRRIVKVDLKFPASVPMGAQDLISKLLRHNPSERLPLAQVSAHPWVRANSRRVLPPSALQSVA

[22] = molecular target: MARK2/PAR-1Ba (Homo sapiens, UniProt Q7KZI7); assay: Kinome-wide profiling; assay type: biochemical; settings: read-out: % Residual Activity (mean)
[23] = molecular target: IKKe/IKBKE (Homo sapiens (Human), UniProt Q14164); assay: Kinome-wide profiling; assay type: biochemical; settings: read-out: % Residual Activity (mean)
[24] = molecular target: MARK3 (Homo sapiens (Human), UniProt P27448); assay: Kinome-wide profiling; assay type: biochemical; settings: read-out: % Residual Activity (mean)
[25] = molecular target: PIM3 (Homo sapiens (Human), UniProt Q86V86); assay: Kinome-wide profiling; assay type: biochemical; settings: read-out: % Residual Activity (mean)
[26] = molecular target: PKAcg (Homo sapiens (Human), UniProt P22612); assay: Kinome-wide profiling; assay type: biochemical; settings: read-out: % Residual Activity (mean)
[27] = molecular target: DYRK4 (Homo sapiens (Human), UniProt Q9NR20); assay: Kinome-wide profiling; assay type: biochemical; settings: read-out: % Residual Activity (mean)
[28] = molecular target: TSSK3/STK22C (Homo sapiens (Human), UniProt Q96PN8); assay: Kinome-wide profiling; assay type: biochemical; settings: read-out: % Residual Activity (mean)
TSSK3/STK22C, sequence (Q96PN8 whole entry): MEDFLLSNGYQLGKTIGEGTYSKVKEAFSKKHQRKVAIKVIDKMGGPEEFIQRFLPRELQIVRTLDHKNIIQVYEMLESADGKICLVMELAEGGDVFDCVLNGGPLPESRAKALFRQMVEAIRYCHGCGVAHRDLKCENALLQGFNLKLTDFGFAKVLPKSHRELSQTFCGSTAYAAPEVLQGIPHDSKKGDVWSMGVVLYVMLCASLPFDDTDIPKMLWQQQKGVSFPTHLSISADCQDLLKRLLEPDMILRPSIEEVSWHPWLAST

[29] = molecular target: ULK3 (Homo sapiens (Human), UniProt Q6PHR2); assay: Kinome-wide profiling; assay type: biochemical; settings: read-out: % Residual Activity (mean)
ULK3, sequence (Q6PHR2 whole entry): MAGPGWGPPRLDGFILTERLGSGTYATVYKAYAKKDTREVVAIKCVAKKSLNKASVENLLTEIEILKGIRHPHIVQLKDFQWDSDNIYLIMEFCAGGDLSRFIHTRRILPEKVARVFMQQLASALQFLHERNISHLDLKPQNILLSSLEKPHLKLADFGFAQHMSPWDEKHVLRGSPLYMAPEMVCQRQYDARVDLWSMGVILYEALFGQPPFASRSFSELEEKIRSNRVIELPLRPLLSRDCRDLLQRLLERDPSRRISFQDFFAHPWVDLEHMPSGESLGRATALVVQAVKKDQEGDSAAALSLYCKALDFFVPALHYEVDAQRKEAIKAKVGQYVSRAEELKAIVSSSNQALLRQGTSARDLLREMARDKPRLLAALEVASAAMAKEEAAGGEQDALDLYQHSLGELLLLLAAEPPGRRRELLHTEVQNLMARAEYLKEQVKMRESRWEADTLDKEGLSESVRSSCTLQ

[30] = molecular target: ROCK2 (Homo sapiens (Human), UniProt O75116); assay: Kinome-wide profiling; assay type: biochemical; settings: read-out: % Residual Activity (mean)
[31] = molecular target: SGK3/SGKL (Homo sapiens (Human), UniProt Q96BR1); assay: Kinome-wide profiling; assay type: biochemical; settings: read-out: % Residual Activity (mean)

Structure (SMILES): CCn1cnc2c(NCc3ccc(-c4ccccn4)nc3)nc(-c3ccc(N)nc3)nc21 [Example 53, N-([2,2′-bipyridin]-5-ylmethyl)-2-(6-aminopyridin-3-yl)-9-ethyl-9H-purin-6-amine]
- activity at 10 µM [1]: 68.1%
- activity at 10 µM [2]: 57.9%
- activity at 10 µM [3]: 81%
- activity at 10 µM [4]: 43%
- anticancer efficacy [5]: anticancer efficacy in a dose-dependent manner
- remaining activity at 10 µM [6]: 10.6%
- remaining activity at 10 µM [7]: 11.7%
- remaining activity at 10 µM [8]: 20.8%
- remaining activity at 10 µM [9]: 28.3%
- remaining activity at 10 µM [10]: 28.8%
- remaining activity at 10 µM [11]: 34.7%
- remaining activity at 10 µM [12]: 41.6%
- remaining activity at 10 µM [13]: 47%
- remaining activity at 10 µM [14]: 49.7%
- remaining activity at 10 µM [15]: 52.3%
- remaining activity at 10 µM [16]: 54.6%
- remaining activity at 10 µM [17]: 56.9%
- remaining activity at 10 µM [18]: 61.7%
- remaining activity at 10 µM [19]: 62.3%
- remaining activity at 10 µM [20]: 62.4%
- remaining activity at 10 µM [21]: 73%
- remaining activity at 10 µM [22]: 74.3%
- remaining activity at 10 µM [23]: 80.1%
- remaining activity at 10 µM [24]: 83.1%
- remaining activity at 10 µM [25]: 86.7%
- remaining activity at 10 µM [26]: 88.4%
- remaining activity at 10 µM [27]: 89.3%
- remaining activity at 10 µM [28]: 91.5%
- remaining activity at 10 µM [29]: 91.8%
- remaining activity at 10 µM [30]: 92.2%
- remaining activity at 10 µM [31]: 92.6%
